According to patent US20240382564A1, “Methods and Compositions for Treating Muscular Dystrophy and Memory Impairment” (Allysta Pharmaceuticals, Inc., priority 2023, published 2024):
Where no end group is shown, it is not given here. [ ]: non-standard residue; d: D form. Nva = CCC[C@H](N)C(=O)O

Test system: D2.mdx mice
Test: Mitochondrial respiration in permeabilized muscle fibre bundles
Format: in vivo, mouse
Settings: quadriceps and diaphragm; multiple substrate conditions; LD and HD
Protocol: D2.mdx mice were treated with ALY688 at two different dosages; high dose (HD; 15 mg/kg body weight/day) or low dose (LD; 3 mg/kg body weight/day) dissolved in saline. A separate group of mice were treated with saline alone (VEH, vehicle). Treatment was provided via subscapular subcutaneous injections from 7 days of age to 28-30 days. […] At 28-30 days of age, mice were anaesthetized with isoflurane vaporized in medical air (21% oxygen) at a 2 L/min flow rate. Due to tissue limitations in limb muscle, certain measures were performed separately in tibialis anterior and quadriceps across several phases of breeding. Following the treatment protocol, in situ quadriceps force assessments were then performed in one limb followed by removal of the quadriceps from the other limb for mitochondrial assessments, diaphragm for in vitro force assessments and finally other tissues for further processing as described below. […]
High resolution oxygen consumption (an index of mitochondrial respiration) was performed in 2 mL of MiRO5 supplemented with (creatine-dependent) or without (creatine independent) 20 mM creatine to saturate mitochondrial creatine kinase activity. O2 consumption was measured using the Oroboros Oxygraph-2K (Oroboros Instruments, Corp., Innsbruck, Austria) while stirring at 37° C. in the presence of 5 μM blebbistatin to prevent muscle fibre contraction by rigor in response to ADP. […]

## [dN]IP[Nva]LY[dS]FA[dS]-NH2 [ALY688]
  ADP-stimulated respiration: generally no effect of either dose
